Data published in patent US10111900B2, “β-glucan methods and compositions that affect the tumor microenvironment” (Biothera, Inc., priority 2014, dated 2018).

What was measured:
CD4 T cells = experiment: MCM-CD4 T cell proliferation and surface marker study; assay type: cell-based, human
Description: For MCM-CD4 T cell proliferation study, CD3 & CD28-stimulated, CFSE-labeled CD4 T cells were cultured with 50% MCM. T cell proliferation was measured on day 11 as described above. Culture supernatants of the MCM-CD4 T cell co-culture were collected for subsequent cytokine analysis. MCM-CD4 T cell surface marker evaluation was performed as described above.
To determine whether soluble factors secreted from β-glucan-treated M2 macrophages are required, measurements were carried out of CD4 T cell proliferation co-cultured with β-glucan-treated M2 macrophages MCM (50% of volume) and surface activation marker modulation on T cells incubated with the MCM were observed. FIG. 9 is representative of 2 different experiments. […] In addition, the CD4 T cells cultured in vehicle- and β-glucan-treated M2 macrophage MCM were evaluated for modulation of co-stimulatory or co-inhibitory molecules (CD80, CD28, CTLA-4, 4-1BB and PD-1).
To test this, M2 macrophages were prepared as described above with a few modifications. The whole blood of a low binder was spun down to remove the plasma and then the cells were reconstituted with serum obtained from a high binder. The reconstituted blood was treated with vehicle or β-glucan (25 μg/mL) for 2 hours at 37° C. The monocytes were evaluated for binding by using anti-β-glucan specific monoclonal antibody and subsequent flow cytometry.

H1299 NSCLC tumors = H1299 NSCLC tumors in mice, effect on TME; assay type: in vivo
Description: Mice bearing H1299 NSCLC tumors were administered bevacizumab (an anti-angiogenic antibody) (5 mg/kg twice weekly IP for four weeks) alone or in combination with IMPRIME PGG (1.2 mg/mouse twice weekly IV for four weeks) as described above for the other mouse studies. […] Increased iNOS and decreased Arginase 1 are markers indicating an M1, immunostimulatory environment.
In addition, at day 20, post tumor injection, spleens were harvested and single cell suspensions were stained with mouse antibodies and analyzed by FACS. GMFI or frequency was calculated in Flowjo after gating on CD11b+F4/80+CD68+ cells (FIG. 17D-FIG. 17F). FIG. 17D and FIG. 17E show an increase in iNOS and a decrease of Arginase-1, respectively. Spleen cells were also stimulated overnight with 100 ng/ml lipopolysaccharide (LPS) and analyzed for TNF-α production. […] As shown, Arginase-1 decreased and iNOS and CD86 increased, which indicates differentiation of splenic MDSC to M1/N1 macrophage/neutrophils with IMPRIME PGG treatment.
For FIG. 17K-FIG. 17M, tumors were harvested at day 20 and digested with type I collagenase for 1 hour at 37° C. Single cell suspensions were stained with mouse antibodies and analyzed by FACS. GMFI or frequency was calculated in Flowjo after gating on CD11b+ cells. As shown, PD-L1 and iNOS increased while Arginase-1 decreased indicating the shift in tumor-infiltrating myeloid cells to a M1-type phenotype.
Lastly, single cell suspensions of the tumor cells were cultured overnight and supernatants were measured for TGF-β by ELISA.

[1] = spleen, day 20, CD11b+F4/80+CD68+ cells

## β(1,6)-[poly-(1,3)-D-glucopyranosyl]-poly-β(1,3)-D-glucopyranose [β-glucan]
CD4 T cells; CD4 T cells cultured in M2 macrophage MCM (data not shown)
  T cell markers (CD80, CD28, CTLA-4, 4-1BB and PD-1): no change
CD4 T cells; MCM of M2 macrophages of a low binder crossed-over with high binder's serum, vs vehicle
  CD4 T cell proliferation: significantly higher ability to enhance
CD4 T cells; β-glucan-treated M2 macrophage MCM (50% of volume) vs vehicle MCM
  CD4 T cell proliferation: significantly higher ability to enhance
H1299 NSCLC tumors; spleen cells stimulated overnight with 100 ng/ml LPS
  TNF-α production: increase
H1299 NSCLC tumors; spleen, CD11b+Gr1+ cells
  Arginase-1: decreased
  CD86: increased
  iNOS: increased
H1299 NSCLC tumors; [1]
  Arginase-1: decrease
  iNOS: increase
H1299 NSCLC tumors; tumor granulocytic MDSC (CD11b+Lyg6+)
  expression of co-stimulatory marker CD86: enhanced expression
